The record followed here is publication PMC8044163, “Vitamin D and lumisterol derivatives can act on liver X receptors (LXRs)” (Scientific Reports, 2021).

Experiment [1] deals with T1, VDR (Homo sapiens, UniProt P11473).
T1 construct: endogenous in cells; host or cells: HaCaT keratinocytes
T1 sequence (P11473 1-427): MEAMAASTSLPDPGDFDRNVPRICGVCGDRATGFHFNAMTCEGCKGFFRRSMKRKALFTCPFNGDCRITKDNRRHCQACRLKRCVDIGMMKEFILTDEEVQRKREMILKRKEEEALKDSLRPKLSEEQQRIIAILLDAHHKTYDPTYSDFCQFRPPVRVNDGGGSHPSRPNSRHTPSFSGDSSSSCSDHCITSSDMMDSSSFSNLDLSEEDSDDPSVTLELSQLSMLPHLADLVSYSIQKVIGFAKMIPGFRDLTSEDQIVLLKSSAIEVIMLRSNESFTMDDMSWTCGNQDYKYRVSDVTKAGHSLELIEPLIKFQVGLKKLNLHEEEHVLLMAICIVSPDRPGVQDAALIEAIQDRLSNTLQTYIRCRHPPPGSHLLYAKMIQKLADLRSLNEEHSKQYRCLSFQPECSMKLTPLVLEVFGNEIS
As to the kind of experiment: Translocation of VDR to the nucleus, imaging flow cytometry in HaCaT. Type of experiment: cell-based. Particulars: 10^–7 M, 12 h. (A flow cytometer gives signals particle by particle.)

For experiment [2], the system named is LXRα/β binding to the LXRE within the ABCA1 promoter region. As to the kind of experiment: ChIP assay in HaCaT keratinocytes. Particulars: 10^–7 M, 24 h. Type of experiment: cell-based, human. The text has this:
We followed protocols described in Ref.[40]. […] The cells were harvested and in vivo crosslinking, lysis and sonication of the chromatin, as well as following steps of ChIP assay, were done using Magna ChiP G Kit 0002 (Millipore). […] The purified DNA fragments were PCR amplified with the following sequence of PCR primers for human ABCA1 LXR-responsive element (LXRE): Forward: [NT], Reverse: [NT] and for human GAPDH as a reference gene: Forward: [NT], Reverse: [NT] (Eurofins Genomics). The PCR reaction was performed using Dream Taq Green PCR Master Mix (2×) (Thermo Scientific, cat. no. K1081) according to the following procedure: initial denaturation: 95 °C for 3 min; denaturation: 95 °C for 30 s (× 35 cycles); annealing: 58 °C for 30 s (× 35 cycles in the same cycles with denaturation); extension: 72 °C for 1 min; final extension: 72 °C for 15 min. The detection of amplification product was done by standard agarose gel electrophoresis with EtBr using Invitrogen iBright CL1000 Imaging System, with # SM Gene Ruler 1 kb Plus DNA Ladder (Thermo Scientific) as a marker.

The subject of experiment [3] is ABCA1. Kind of experiment: qPCR of ABCA1 in HaCaT keratinocytes. The experiment is classed as cell-based, human. Particulars: 10^–7 M. The protocol:
HaCaT keratinocytes were cultured as described previously. For RNA isolation the cells were maintained in TPP tissue culture petri dishes (Ø60 mm, 22.1 cm^2) in DMEM containing 10% cFBC to reach semi-confluence and then exposed to 10^–7 M compounds or a corresponding concentration of ethanol solvent.
(§1) RNA isolated from either fibroblasts, HaCaT cells or brain was submitted for cDNA synthesis (High Capacity cDNA Reverse Transcription Kit with RNase Inhibitor, Applied Biosystems) following the manufacturers’ protocols. RT-PCR was carried out using Cyber green, in triplicates; as previously described. Approximately, 750 ng of cDNA was used for PCR reactions. GAPDH and CIC-B were used as internal controls. Primer sequences are listed in Supplementary Table 27. Data were analyzed using GraphPad Prism statistical software one way ANOVA or t-test, where appropriate; *p < 0.05; **p < 0.01; ***p < 0.001.
(In general: Real-time PCR tracks product formation cycle by cycle.)

Experiment [4] addresses T2, LXRα (Homo sapiens, UniProt Q13133).
T2 construct: endogenous in cells; host or cells: HaCaT keratinocytes
T2 sequence (Q13133 1-447): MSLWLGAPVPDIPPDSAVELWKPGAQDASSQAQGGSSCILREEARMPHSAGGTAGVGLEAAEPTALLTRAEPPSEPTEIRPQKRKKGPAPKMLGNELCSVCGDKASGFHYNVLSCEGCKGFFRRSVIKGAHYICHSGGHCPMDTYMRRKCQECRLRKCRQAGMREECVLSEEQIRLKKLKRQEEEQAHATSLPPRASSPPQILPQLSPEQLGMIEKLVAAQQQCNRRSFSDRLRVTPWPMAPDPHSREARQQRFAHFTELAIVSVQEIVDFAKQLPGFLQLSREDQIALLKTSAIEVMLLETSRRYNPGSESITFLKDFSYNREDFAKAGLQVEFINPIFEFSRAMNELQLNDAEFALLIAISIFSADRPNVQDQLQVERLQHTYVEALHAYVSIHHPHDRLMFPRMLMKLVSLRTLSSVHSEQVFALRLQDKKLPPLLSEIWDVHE
As to the kind of experiment: Ligand induced translocation of LXRα to the nucleus, immunofluorescence in HaCaT. The experiment is classed as cell-based. Particulars: 10^−7 M, 24 h. The protocol: HaCaT cells were plated in DMEM plus 5% cFBS either on a sterile glass cover slip placed in a well of a 6-well plates for immunofluorescence (IF) assays or TPP Petri dishes for image-stream flow cytometry, and treated with 10^–7 M D3- or L3-hydroxyderivatives or 0.1% ethanol (vehicle) as a negative control was added to each well, and the cells were incubated for 12 or 24 h at 37 °C with 5% CO2. For IF the cells were fixed in 4% paraformaldehyde for 15 min, incubated in 0.5% Triton X-100 in phosphate-buffered saline (PBS) for 5 min, and washed 3 times in PBS. After blocking with 2% bovine serum albumin (BSA) in PBS for 1 h at room temperature, the cells were treated with an anti-LXRα antibody (Novus Biologicals, LLC, Centennial, CO) at 1:200 in PBS supplemented with 2% BSA overnight in 4 °C. After washing the slides were incubated with a mouse anti-rabbit IgG-FITC (Santa Cruz Biotechnology, Inc, Dallas, TX) at 1:200 dilution for 1.5 h at 37 °C. After washing the slides were mounted using propidium iodide (PI) (Vector Labs, Burlingame, California) as a nuclear counterstain. The slides were examined using a KEYENCE America BZ-X710 Fluorescence Microscope (Itasca, IL). The images were subsequently analyzed using the JACoP plugin for colocalization analysis with ImageJ[74]. Five separate high-power field (40×) images were converted to grayscale and analyzed for each condition. Manders’ coefficient (M1), calculated using a preset threshold, was used to quantify the degree of colocalization between PI and LXRα with 0 representing no colocalization, and 1 representing perfect colocalization.

In experiment [5] the test system is brains of SKH-1 mice. Kind of experiment: LXR-dependent gene expression in brain of mice after subcutaneous injection. Particulars: 6 h, SKH-1-M mice. Type of experiment: in vivo, mouse. The protocol: Adult hairless mice SKH-1 (Male, 16 weeks old) and Ptch^+/−/SKH-1 (Male, 18 weeks old) were injected subcutaneously with 20 µg and 10 µg/kg of 20(OH)D3, respectively, dissolved in ethanol, further diluted in propylene glycol (PG) and saline (0.9%) sequentially (1:19:80, v/v/v). Controls were injected with the vehicle without the drug. )After 6 h the animals were killed by halothane followed by cervical dislocation and brains were collected for RNA and protein extraction protocols. The procedures followed the guidelines and approvals of the Institute Animal Care and Use Committee of the University of Alabama at Birmingham (IACUC).
as §1

For the compound `C=C1C(=CC=C2CCCC3(C)C2CCC3C(C)(O)CC(O)CC(C)C)CC(O)CC1O` (stereo not drawn) [1,20,23(OH)3D3], the “translocation of VDR from the cytoplasm to the nucleus” value in experiment [1] is on record as “increased translocation”.
As for `C=C1/C(=C\C=C2/CCC[C@]3(C)[C@@H]([C@H](C)CCCC(C)(C)O)CC[C@@H]23)C[C@@H](O)C[C@@H]1O` [1,25(OH)2D3, reference compound], the “LXRα/β binding to the LXRE within the ABCA1 promoter region (ChIP)” value in experiment [2] was “significant stimulation”. Further, the “ABCA1 RNA expression (qPCR)” value in experiment [3] is recorded as “stimulation”. Besides, the “translocation of LXRα to the nucleus (immunofluorescence, Manders' coefficient)” value in experiment [4] is “induced translocation”.
Take `C=C1CC[C@H](O)C/C1=C/C=C1\CCC[C@@]2(C)[C@H]1CC[C@@H]2[C@@](C)(O)CCCC(C)C` [20(OH)D3]: the “LXR-dependent gene expression in brain” value in experiment [5] (10 µg/kg) was “stimulated expression of Abca1, Abcg1, Abcg5, ApoE, Fas and Cyp7a1”; in experiment [5] (20 µg/kg) it was “stimulated expression of Lpl, Abca1, ApoE and Cyp7a1”. Besides, the “ABCA1 RNA expression (qPCR)” value in experiment [3] was “stimulation”. Further, the “translocation of LXRα to the nucleus (immunofluorescence, Manders' coefficient)” value in experiment [4] is “induced translocation”. Further, the “translocation of VDR from the cytoplasm to the nucleus” value in experiment [1] is “increased translocation”.
